The target in this assay is T1, glucocorticoid receptor (Homo sapiens, UniProt P04150).
T1 construct: expressed in transfected cells
T1 sequence (P04150 524-758 limits assumed): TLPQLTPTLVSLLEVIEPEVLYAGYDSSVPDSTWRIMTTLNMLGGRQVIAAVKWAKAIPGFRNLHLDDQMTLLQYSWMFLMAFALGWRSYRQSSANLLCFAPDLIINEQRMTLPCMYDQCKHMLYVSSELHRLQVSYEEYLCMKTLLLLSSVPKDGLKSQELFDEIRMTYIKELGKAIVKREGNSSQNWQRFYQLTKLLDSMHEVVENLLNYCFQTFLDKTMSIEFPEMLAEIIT
In words: Agonistic mode of action on the glucocorticoid receptor (CHO-Gal4/GR luciferase reporter cell line). Format: cell-based. Conditions: range class observed in the agonistic assay or the antagonistic assay (CHO-Gal4/GR reporter cells); table does not say which mode applies per example. A digest of the protocol: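 CHO cells stably carrying GAL4 DBD–GR ligand-binding-domain fusion and GAL4-UAS firefly luciferase reporter, 5000 cells/well grown 24 h, then compounds added in Opti-MEM at 8 half-log concentrations from 10 μM to 0.003 μM (0.5% DMSO), quadruplicates. Agonist-induced luminescence read on FLIPR Tetra; EC50 calculated.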
On the technique in general: In a reporter assay the amount or activity of a reporter protein is the signal.

The molecule `Cc1c(-c2cccc3c2cnn3S(C)(=O)=O)ccc2c1-n1c(C)nnc1C(C)(C)N2` [Example 457, 1,4,4,9-Tetramethyl-8-(1-methylsulfonyl-1H-indazol-4-yl)-5H-[1,2,4]triazolo[4,3-a] quinoxaline] showed an IC50 or EC50 (agonist or antagonist mode not specified) of 100 to 1000 nM.

`CCS(=O)(=O)n1ccc2c(-c3c(F)cc4c(c3C(F)F)-n3c(C)nnc3C(C)(C)N4)cccc21` [Example 461, 9-(Difluoro-methyl)-8-[1-(ethylsulfonyl)-1H-indol-4-yl]-7-fluoro-1,4,4-trimethyl-5H-[1,2,4] triazolo[4,3-a]quinoxaline]: the IC50 or EC50 (agonist or antagonist mode not specified) was under 100 nM.

`CCc1nnc2n1-c1c(cc(F)c(-c3cc(C)cc4c(C#N)c[nH]c34)c1F)NC2(C)C` [Example 17, 7-(1-ethyl-7,9-difluoro-4,4-dimethyl-4,5-dihydro-[1,2,4]triazolo[4,3-a]quinoxalin-8-yl)-5-methyl-1H-indole-3-carbonitrile] displayed an IC50 or EC50 (agonist or antagonist mode not specified) of 100 to 1000 nM.

`Cc1c(-c2cccc3c(CC(F)(F)F)c[nH]c23)c(F)cc2c1-n1c(C)nnc1C(C)(C)N2` [Example 24, 7-fluoro-1,4,4,9-tetramethyl-8-(3-(2,2,2-trifluoroethyl)-1H-indol-7-yl)-4,5-dihydro-[1,2,4]triazolo[4,3-a]quinoxaline]: the IC50 or EC50 (agonist or antagonist mode not specified) is under 100 nM.

The molecule `COc1cc2c(c(C(F)(F)F)c1-c1cccc3c1ccn3C1CC1)-n1c(C)nnc1C(C)(C)N2` [Example 523, 8-(1-Cyclopropyl-1H-indol-4-yl)-7-methoxy-1,4,4-trimethyl-9-(trifluoromethyl)-5H-[1,2,4]triazolo[4,3-a]quinoxaline] gave an IC50 or EC50 (agonist or antagonist mode not specified) of 100 to 1000 nM.

As for `COCCn1ccc2c(-c3c(Cl)cc4c(c3F)-n3c(C)nnc3C(C)(C)N4)cc(F)cc21` [Example 404, 7-Chloro-9-fluoro-8-[6-fluoro-1-(2-methoxy-ethyl)-1H-indol-4-yl]-1,4,4-trimethyl-5H-[1,2,4]triazolo[4,3-a]quinoxaline], the IC50 or EC50 (agonist or antagonist mode not specified) lay in the range of 100 to 1000 nM.

The molecule `COc1cc(-c2c(F)cc3c(c2C(F)(F)F)-n2c(C)nnc2C(C)(C)N3)c2ccn(S(C)(=O)=O)c2c1` [Example 536, 7-Fluoro-8-(6-methoxy-1-methylsulfonyl-1H-indol-4-yl)-1,4,4-trimethyl-9-(trifluoro-methyl)-5H-[1,2,4]triazolo [4,3-a]quinoxaline] showed an IC50 or EC50 (agonist or antagonist mode not specified) of 100 to 1000 nM.

`Cc1c(-c2cccc3[nH]ccc23)c(F)cc2c1-n1c(C)nnc1C(C)(C)N2` [Example 399, 7-Fluoro-8-(1H-indol-4-yl)-1,4,4,9-tetramethyl-5H-[1,2,4]triazolo[4,3-a]quinoxaline] returned an IC50 or EC50 (agonist or antagonist mode not specified) of under 100 nM.

The molecule `Cc1nnc2n1-c1c(cc(F)c(-c3cccc4c3ccn4CCNC(=O)OC(C)(C)C)c1F)NC2(C)C` [Example 228, N-[2-[4-(7,9-Difluoro-1,4,4-trimethyl-5H-[1,2,4]triazolo[4,3-a]quinoxalin-8-yl)-1H-indol-1-yl]-ethyl]-carbarmic acid tert-butyl ester] gave an IC50 or EC50 (agonist or antagonist mode not specified) of 1000 to 15000 nM.

The molecule `Cc1c(-c2cc(F)cc3c2ccn3S(C)(=O)=O)c(OC(F)(F)F)cc2c1-n1c(C)nnc1C(C)(C)N2` [Example 403, 8-(6-Fluoro-1-methylsulfonyl-1H-indol-4-yl)-1,4,4,9-tetramethyl-7-(trifluoromethyloxy)-5H-[1,2,4]triazolo[4,3-a]quinoxaline] displayed an IC50 or EC50 (agonist or antagonist mode not specified) of under 100 nM.

Regarding `Cc1nnc2n1-c1c(cc(F)c(-c3cccc4c3cnn4CC3CC3)c1F)NC2(C)C` [Example 235, 8-[1-(Cyclopropyl-methyl)-1H-indazol-4-yl]-7,9-difluoro-1,4,4-trimethyl-5H-[1,2,4]triazolo[4,3-a]quinoxaline], the IC50 or EC50 (agonist or antagonist mode not specified) is under 100 nM.

These data come from patent US12110293B2, “Substituted triazolo quinoxaline derivatives” (GRÜNENTHAL GMBH, priority 2018, dated 2024).
